Measurements from patent US20010033847A1, “DERMATOLOGIC PREPARATION” (priority 1996, published 2001).

Test system: affected regions of atopic patients
Test: itch and area of inflammation after 1 week of application in atopic patients
Assay type: in vivo, human
Settings: number of 3 atopic patients; daily application for 1 week
Procedure: The dermatologic preparations of Examples 1 to 3 and the dermatologic preparations for comparison of Reference Examples 1 to 3 were evaluated for itch and the area of inflammation 1 week after application.
To the affected regions of 3 atopic patients (1 adult, 1 adult, and 1 child), was applied an adequate amount of each oil produced in Examples 1 to 3 and Reference Examples 1 to 3 after bathing every day. After application for 1 week, itch and the inflammatory area were evaluated. During the treatment period, the drugs used previously were continued. In the child who could not describe itch, itch was evaluated based on the behavior of scratching at the affected region.

1,3-dioctanoyl-2-eicosapentaenoyl glycerol [Example 2]
inflammatory area: no change: 0 patients | inflammatory area: reduced: 3 patients | inflammatory area: widened: 0 patients | itch: improved: 3 patients | itch: no change: 0 patients | itch: worsened: 0 patients
